We go through two compounds from patent US20230277505A1 (Arena Pharmaceuticals, Inc., priority 2003, published 2023).

For data set [1] the following is noted: 24 months of treatment; patients; cited from earlier work.
For data set [2] the following is noted: glaucoma patients; cited from earlier work.
Data set [3] concerns DOI-induced hypolocomotion in rats. Nature of the data set: Attenuation of DOI-induced hypolocomotion in rats. Format: in vivo, rat. Conditions: 50 μmol/kg p.o. 60 min before DOI 0.3 mg/kg s.c. How it is done: In this example, compounds of the invention, such as Compound 1 and Compound 26, were tested for inverse agonist activity by determining whether these compounds could attenuate DOI-induced hypolocomotion in rats in a novel environment. DOI is a potent 5HT2A/2C receptor agonist that crosses the blood-brain barrier.
Male Sprague-Dawley rats (Harlan, San Diego, Calif.) weighing between 200-300 g were used for all tests. Rats were housed three to four per cage. These rats were naïve to experimental testing and drug treatment. Rats were handled one to three days before testing to acclimate them to experimental manipulation. Rats were fasted overnight prior to testing.
(R)-DOI HCl (C11H16INO2·HCl) was obtained from Sigma-Aldrich, and was dissolved in 0.9% saline. Compounds of the invention were synthesized at Arena Pharmaceuticals Inc. and were dissolved in 100% PEG400. […]
The “Motor Monitor” (Hamilton-Kinder, Poway, Calif.) was used for all activity measurement. This apparatus recorded rears using infrared photobeams. […]
In determining the effects of compounds of the invention on DOI-induced hypoactivity, animals were first injected with vehicle or the compound of the invention (50 μmol/kg) in their home cages. […] 10 min after DOI administration, animals were placed into the activity apparatus and rearing activity was measured for 10 minutes.
Results (total rears over 10 minutes) were analyzed by t-test. […]

The next data set addresses 5HT2A receptor (Macaca mulatta (Rhesus macaque), UniProt P50128). As to the kind of experiment: Serotonin 5-HT2A receptor occupancy study in monkey (PET, 18F-altanserin). To be noted: iv. The format is in vivo.
A short description of data set [4]: Plasma drug concentration in the PET occupancy study. Conditions: 0.5 mg/kg i.v.; after 8 hours. Format: in vivo, rhesus monkey. How it is done: The monkey was anesthetized by using ketamine (10 mg/kg) and was maintained using 0.7 to 1.25% isoflurane. Typically, the monkey had two i.v. lines, one on each arm. One i.v. line was used to administer the radioligand, while the other line was used to draw blood samples for pharmacokinetic data of the radioligand as well as the cold drugs. Generally, rapid blood samples were taken as the radioligand is administered which then taper out by the end of the scan. A volume of approximately 1 ml of blood was taken per time point, which was spun down, and a portion of the plasma was counted for radioactivity in the blood.
The results of both an 8 hour and 24 hour study are shown. The test compound was administered via i.v. infusion in 5.0 ml of 80% PEG400. For the 8 hour study, venous blood samples were drawn at 5 minutes post Compound 1 and 15 minutes before PET scan. For the 24 hour study, venous blood samples were drawn at 5 minutes post Compound 1 and 10 minutes before PET scan.

The test system of the next data set is male Wistar rats. As to the kind of experiment: Effect on delta power, sleep and wakefulness in rats (EEG/EMG). The format is in vivo, rat. Conditions: oral gavage. How it is done: In this example, the effect of Compounds of the Invention, such as Compound 1 and Compound 26, on sleep and wakefulness was compared to the reference drug zolpidem. Drugs were administered during the middle of the light period (inactivity period).
Briefly, four compounds of the invention, including Compound 1 (1.0 mg/kg) and Compound 26 (1.4 mg/kg), were tested for their effects on sleep parameters and were compared to zolpidem (5.0 mg/kg, Sigma, St. Louis, Mo.) and vehicle control (80% Tween 80, Sigma, St. Louis, Mo.). A repeated measures design was employed in which each rat was to receive seven separate dosings via oral gavage. The first and seventh dosings were vehicle and the second through sixth were the test compounds and zolpidem given in counter-balanced order. Since all dosings were administered while the rats were connected to the recording apparatus, 60% CO2/40% O2 gas was employed for light sedation during the oral gavage process. Rats appeared fully recovered within 60 seconds following the procedure. A minimum of three days elapsed between dosings. […] Dosing typically occurred between 13:15 and 13:45 using a 24 hour notation. All dosing solutions were made fresh on the day of dosing. Following each dosing, animals were continuously recorded until lights out the following day (˜30 hours).
Animals were housed in a temperature controlled recording room under a 12/12 light/dark cycle (lights on at 7:00 am) and had food and water available ad libitum. Room temperature (24+2° C.), humidity (50+20% relative humidity) and lighting conditions were monitored continuously via computer. Drugs were administered via oral gavage as described above, with a minimum of three days between dosings. Animals were inspected daily in accordance with NIH guidelines. […]
EEG and EMG data were scored visually in 10 second epochs for waking (W), REMS, NREMS. Scored data were analyzed and expressed as time spent in each state per half hour. Sleep bout length and number of bouts for each state were calculated in hourly bins. […]

Where two headings read alike, the source gives them in different places.

Regarding `COc1cccc(CCc2ccccc2OCC(CN(C)C)OC(=O)CCC(=O)O)c1` (stereo not drawn) [sarpogrelate], the “urinary albumin excretion level” value in data set [1] was “significantly reduced”. Moreover, in data set [2], the IOP entry is on record as “significantly lower”.

In the case of `COc1ccc(NC(=O)Nc2ccc(Cl)cc2)cc1-c1c(Br)cnn1C` [Compound 1, 1-[3-(4-Bromo-2-methyl-2H-pyrazol-3-yl)-4-methoxy-phenyl]-3-(4-Chloro-phenyl)-urea], the “DOI-induced hypolocomotion (total rears over 10 minutes)” value in data set [3] is listed as “attenuated DOI-induced hypolocomotion”. The receptor occupancy at 0.5 mg/kg on 5HT2A receptor (read-out: 5HT2A receptor occupancy, 0.5 mg/kg i.v., 8 hours following drug administration, cortical regions) is about 90%; on 5HT2A receptor (read-out: 5HT2A receptor occupancy, 0.5 mg/kg i.v., 24 hours post-injection) it was about 80%. Also, the “test drug concentrations in plasma samples” value in data set [4] is listed as “no measurable test drug concentrations”. In addition, the NREMS bout length result with male Wistar rats (1.0 mg/kg, second hour) is recorded as “significantly increased”. Besides, the REMS bout length result with male Wistar rats (Compound 1 1.0 mg/kg, Compound 26 1.4 mg/kg, fourth hour) is “significantly increased”. In the data set with male Wistar rats (Compound 1 1.0 mg/kg, Compound 26 1.4 mg/kg, second hour following dosing (15:00), vs vehicle), the “delta power during NREMS” value is recorded as “significantly increased”.
